According to ChEMBL document CHEMBL1255301, “Activity of Tigecycline against Coryneform Bacteria of Clinical Interest and Listeria monocytogenes” (2008):
Converted amounts (≈) assume the structure as drawn.

Assays:
Type in all cases: functional
Listeria monocytogenes = assay: Antimicrobial activity against Listeria monocytogenes isolates by CLSI M45-A protocol based microdilution method
[1] = tested on: Corynebacterium minutissimum; assay: Antimicrobial activity against Corynebacterium minutissimum isolates by CLSI M45-A protocol based microdilution method
Prescottella equi = assay: Antimicrobial activity against Rhodococcus equi isolates by CLSI M45-A protocol based microdilution method
Corynebacterium striatum = assay: Antimicrobial activity against Corynebacterium striatum isolates by CLSI M45-A protocol based microdilution method
[2] = tested on: Corynebacterium amycolatum; assay: Antimicrobial activity against Corynebacterium amycolatum isolates by CLSI M45-A protocol based microdilution method
[3] = tested on: Corynebacterium pseudodiphtheriticum; assay: Antimicrobial activity against Corynebacterium pseudodiphtheriticum isolates by CLSI M45-A protocol based microdilution method
[4] = tested on: Corynebacterium urealyticum; assay: Antimicrobial activity against Corynebacterium urealyticum isolates by CLSI M45-A protocol based microdilution method
[5] = tested on: Arcanobacterium haemolyticum; assay: Antimicrobial activity against Arcanobacterium haemolyticum isolates by CLSI M45-A protocol based microdilution method
Corynebacterium jeikeium = assay: Antimicrobial activity against Corynebacterium jeikeium isolates by CLSI M45-A protocol based microdilution method
Corynebacterium xerosis = assay: Antimicrobial activity against Corynebacterium xerosis isolates by CLSI M45-A protocol based microdilution method
[6] = Rhodococcus (subgen. Prescottella) equi

Compound	MIC50 (Listeria monocytogenes) [µg/mL]	MIC90 (Listeria monocytogenes) [µg/mL]	MIC50 [1] [µg/mL]	MIC50 (Prescottella equi; [6]) [µg/mL]	MIC90 (Prescottella equi; [6]) [µg/mL]	MIC50 (Corynebacterium striatum) [µg/mL]	MIC90 (Corynebacterium striatum) [µg/mL]	MIC50 [2] [µg/mL]	MIC90 [2] [µg/mL]	MIC50 [3] [µg/mL]	MIC90 [3] [µg/mL]	MIC50 [4] [µg/mL]	MIC90 [4] [µg/mL]	MIC50 [5] [µg/mL]	MIC90 [5] [µg/mL]	MIC (Corynebacterium jeikeium) [µg/mL]	MIC50 (Corynebacterium jeikeium) [µg/mL]	MIC90 (Corynebacterium jeikeium) [µg/mL]	MIC50 (Corynebacterium xerosis) [µg/mL]	MIC [1] [µg/mL]	also measured
CN[C@H](CC(C)C)C(=O)N[C@H]1C(=O)N[C@@H](CC(N)=O)C(=O)N[C@H]2C(=O)N[C@H]3C(=O)N[C@H](C(=O)N[C@H](C(=O)O)c4cc(O)cc(O)c4-c4cc3ccc4O)[C@H](O)c3ccc(c(Cl)c3)Oc3cc2cc(c3O[C@@H]2O[C@H](CO)[C@@H](O)[C@H](O)[C@H]2O[C@H]2C[C@](C)(N)[C@H](O)[C@H](C)O2)Oc2ccc(cc2Cl)[C@H]1O [VANCOMYCIN]	0.5 (≈ 0.345 µM)	1 (≈ 0.69 µM)	0.25 (≈ 0.173 µM)	0.5 (≈ 0.345 µM)	0.5 (≈ 0.345 µM)	0.25 (≈ 0.173 µM)	0.5 (≈ 0.345 µM)	0.25 (≈ 0.173 µM)	0.5 (≈ 0.345 µM)	0.25 (≈ 0.173 µM)	0.25 (≈ 0.173 µM)	0.25 (≈ 0.173 µM)	0.5 (≈ 0.345 µM)	0.25 (≈ 0.173 µM)	0.5 (≈ 0.345 µM)	0.06 (≈ 0.0414 µM)	0.06 (≈ 0.0414 µM)	0.25 (≈ 0.173 µM)	0.25 (≈ 0.173 µM)		
C[C@H]1c2cccc(O)c2C(=O)C2=C(O)[C@]3(O)C(=O)C(C(N)=O)=C(O)[C@@H](N(C)C)[C@@H]3[C@@H](O)[C@@H]21.O [DOXYCYCLINE]	0.125	0.125	0.25	1	1	8	> 16	0.06	0.5	0.125	0.125	0.125	4	0.125	8		0.03	1	0.5		
CN(C)c1ccc(O)c2c1C[C@H]1C[C@H]3[C@H](N(C)C)C(O)=C(C(N)=O)C(=O)[C@@]3(O)C(O)=C1C2=O [MINOCYCLINE]	0.06 (≈ 0.131 µM)	0.06 (≈ 0.131 µM)	≤ 0.03	0.25 (≈ 0.546 µM)	0.25 (≈ 0.546 µM)	4 (≈ 8.74 µM)	8 (≈ 17.5 µM)	0.06 (≈ 0.131 µM)	0.25 (≈ 0.546 µM)	0.06 (≈ 0.131 µM)	0.06 (≈ 0.131 µM)	0.06 (≈ 0.131 µM)	0.5 (≈ 1.09 µM)	≤ 0.03	4 (≈ 8.74 µM)	0.06 (≈ 0.131 µM)	0.06 (≈ 0.131 µM)	0.25 (≈ 0.546 µM)	0.25 (≈ 0.546 µM)	≤ 0.03	MIC [5]: ≤ 0.03 µg/mL
CN(C)[C@@H]1C(O)=C(C(N)=O)C(=O)[C@@]2(O)C(O)=C3C(=O)c4c(O)cccc4[C@@](C)(O)[C@H]3C[C@@H]12 [TETRACYCLINE]	0.5 (≈ 1.13 µM)	0.5 (≈ 1.13 µM)	0.25 (≈ 0.563 µM)	8 (≈ 18 µM)	8 (≈ 18 µM)	16 (≈ 36 µM)	> 32	0.125 (≈ 0.281 µM)	0.5 (≈ 1.13 µM)	0.125 (≈ 0.281 µM)	0.25 (≈ 0.563 µM)	0.25 (≈ 0.563 µM)	16 (≈ 36 µM)	0.125 (≈ 0.281 µM)	16 (≈ 36 µM)	0.06 (≈ 0.135 µM)	0.06 (≈ 0.135 µM)		0.5 (≈ 1.13 µM)		
CN(C)c1cc(NC(=O)CNC(C)(C)C)c(O)c2c1C[C@H]1C[C@H]3[C@H](N(C)C)C(O)=C(C(N)=O)C(=O)[C@@]3(O)C(O)=C1C2=O [TIGECYCLINE]	0.06 (≈ 0.102 µM)	0.125 (≈ 0.213 µM)	≤ 0.015	0.25 (≈ 0.427 µM)	0.5 (≈ 0.854 µM)	0.5 (≈ 0.854 µM)	1 (≈ 1.71 µM)	0.125 (≈ 0.213 µM)	0.25 (≈ 0.427 µM)	≤ 0.015	0.03 (≈ 0.0512 µM)	0.03 (≈ 0.0512 µM)	0.06 (≈ 0.102 µM)	≤ 0.015	≤ 0.015	≤ 0.015	≤ 0.015	0.03 (≈ 0.0512 µM)	0.125 (≈ 0.213 µM)	≤ 0.003	MIC [3]: ≤ 0.015 µg/mL; MIC [5]: ≤ 0.015 µg/mL
CCC[C@@H]1C[C@@H](C(=O)N[C@@H]([C@H]2O[C@H](SC)[C@H](O)[C@@H](O)[C@H]2O)[C@H](C)Cl)N(C)C1 [CLINDAMYCIN]	1 (≈ 2.35 µM)	2 (≈ 4.71 µM)	> 16	2 (≈ 4.71 µM)	8 (≈ 18.8 µM)	> 16	> 16	> 16	> 16	> 16	> 16	> 16	> 16	≤ 0.015	≤ 0.015	> 16	> 16	> 16	> 16		MIC [5]: ≤ 0.015 µg/mL
GENTAMICIN	0.25	0.125	0.06			2	8	8	16	0.06	0.06	> 32	> 32	0.5	0.5		> 32	> 32	8	< 0.03	MIC50 (Prescottella equi): 0.5 µg/mL; MIC90 (Prescottella equi): 1 µg/mL; MIC (Corynebacterium xerosis): < 0.03 µg/mL
C[C@H]1COc2c(N3CCN(C)CC3)c(F)cc3c(=O)c(C(=O)O)cn1c23.C[C@H]1COc2c(N3CCN(C)CC3)c(F)cc3c(=O)c(C(=O)O)cn1c23.O [LEVOFLOXACIN]	0.5	1	0.06	1	2	> 32	> 32	> 32	> 32	0.25	4	> 32	> 32	0.5	0.5		4	> 32	32		
CO/N=C(\C(=O)N[C@@H]1C(=O)N2C(C(=O)O)=C(COC(N)=O)CS[C@H]12)c1ccco1 [CEFUROXIME]	> 32	> 32	0.5 (≈ 1.18 µM)	8 (≈ 18.9 µM)	16 (≈ 37.7 µM)	1 (≈ 2.36 µM)	2 (≈ 4.71 µM)	0.5 (≈ 1.18 µM)	2 (≈ 4.71 µM)	0.06 (≈ 0.141 µM)	0.125 (≈ 0.295 µM)	> 32	> 32	0.125 (≈ 0.295 µM)	0.25 (≈ 0.589 µM)		> 32	> 32	2 (≈ 4.71 µM)		
